Source: US20250241895A1 (GH RESEARCH IRELAND LIMITED, priority 2022, published 2025)

What was measured:
[1] = Pharmacokinetics of 5-MeO-DMT and bufotenine after inhalation; type: in vivo, human
Protocol: Blood samples were obtained at 1; 2; 4; 7; 10; 15; 20; 30; 45 min and 1; 1.5; 2; 3; 4 hours after administration.
PK parameters were generated by algebraic analysis of the concentration versus time plots for each individual. The analysis was carried out using the software Phoenix WinNonlin 6.3.

[2] = test system: patients with treatment-resistant major depressive disorder (TRD); test: Phase 1/2 clinical trial of inhaled 5-MeO-DMT in TRD; conditions: for patients with at least one ADR: n=4
Protocol: This trial was designed in two parts. Part A was an open-label, single-arm, single-dose Phase 1 trial with two dose levels (12 mg (n=4) and 18 mg (n=4)). […] The primary endpoint of Part B was to assess the effects on the severity of depression, as assessed by the proportion of patients in remission on day seven after dosing, defined as a MADRS total score of less than or equal to 10.

[3] = 12 mg group n=4, sum of patient scores, 2 hours after dose
[4] = 12 mg group n=4, sum of patient scores, 3 hours after dose
[5] = 12 mg group n=4, sum of patient scores, baseline
[6] = 12 mg group n=4, sum of patient scores, day 1
[7] = 12 mg group n=4, sum of patient scores, day 7
[8] = IDR group n=8, sum of patient scores, 2 hours after last dose
[9] = IDR group n=8, sum of patient scores, 3 hours after last dose
[10] = IDR group n=8, sum of patient scores, baseline
[11] = IDR group n=8, sum of patient scores, day 1
[12] = IDR group n=8, sum of patient scores, day 7

Question: Which “detectability in the plasma” value ([1]; 3 hours after inhalation, 6 mg, 12 mg, 18 mg) does the source give for `COc1ccc2[nH]cc(CCN(C)C)c2c1` [5-MeO-DMT] here?
Answer: no longer detectable

Question: What about the absorption and distribution ([1]; inhaled) of the same compound?
Answer: rapid absorption and distribution

Question: What about the “BPRS Anxiety percentage improvement” value ([2]; 12 mg group n=4, day 7) of the same compound?
Answer: 76.00%

Question: What about the “MADRS Pessimistic Thoughts percentage improvement” value ([2]; 12 mg group n=4, day 7) of the same compound?
Answer: 50.00%

Question: And the “MADRS Reduced Sleep percentage improvement” value ([2]; 12 mg group n=4, day 7)?
Answer: 50.00%

Question: What about the “MADRS Concentration Difficulties improvement” value [2, 3] of the same compound?
Answer: 9

Question: And the “MADRS Inability to Feel improvement” value [2, 3]?
Answer: 7

Question: And the “MADRS Inner Tension improvement” value [2, 3]?
Answer: 11

Question: What about the “MADRS Lassitude improvement” value [2, 3] of the same compound?
Answer: 6

Question: What about the “MADRS Lassitude score” value [2, 3] of the same compound?
Answer: 10

Question: And the “MADRS Pessimistic Thoughts improvement” value [2, 3]?
Answer: 8

Question: And the “MADRS Suicidal Thoughts improvement” value [2, 3]?
Answer: 5

Question: What about the “MADRS Suicidal Thoughts score” value [2, 3] of the same compound?
Answer: 3

Question: And the “BPRS Anxiety improvement” value [2, 4]?
Answer: 14

Question: What about the “BPRS Blunted Affect improvement” value [2, 4] of the same compound?
Answer: 3

Question: And the “BPRS Emotional Withdrawal improvement” value [2, 4]?
Answer: 2

Question: What about the “BPRS Guilt Feelings improvement” value [2, 4] of the same compound?
Answer: 9

Question: And the “BPRS Tension improvement” value [2, 4]?
Answer: 5

Question: What about the “BPRS Anxiety score” value [2, 5] of the same compound?
Answer: 25

Question: And the “BPRS Blunted Affect score” value [2, 5]?
Answer: 11

Question: And the “BPRS Emotional Withdrawal score” value [2, 5]?
Answer: 13

Question: And the “BPRS Guilt Feelings score” value [2, 5]?
Answer: 18

Question: What about the “BPRS Tension score” value [2, 5] of the same compound?
Answer: 14

Question: What about the “MADRS Concentration Difficulties score” value [2, 5] of the same compound?
Answer: 16

Question: What about the “MADRS Inability to Feel score” value [2, 5] of the same compound?
Answer: 16

Question: What about the “MADRS Inner Tension score” value [2, 5] of the same compound?
Answer: 13

Question: What about the “MADRS Lassitude score” value [2, 5] of the same compound?
Answer: 16

Question: And the “MADRS Pessimistic Thoughts score” value [2, 5]?
Answer: 16

Question: And the “MADRS Reduced Sleep score” value [2, 5]?
Answer: 12

Question: What about the “MADRS Suicidal Thoughts score” value [2, 5] of the same compound?
Answer: 8

Question: What about the “BPRS Anxiety improvement” value [2, 6] of the same compound?
Answer: 19

Question: What about the “BPRS Blunted Affect improvement” value [2, 6] of the same compound?
Answer: 5

Question: What about the “BPRS Emotional Withdrawal improvement” value [2, 6] of the same compound?
Answer: 5

Question: And the “BPRS Emotional Withdrawal score” value [2, 6]?
Answer: 8

Question: What about the “BPRS Guilt Feelings improvement” value [2, 6] of the same compound?
Answer: 13

Question: And the “BPRS Tension improvement” value [2, 6]?
Answer: 8

Question: And the “MADRS Concentration Difficulties improvement” value [2, 6]?
Answer: 14

Question: And the “MADRS Inability to Feel improvement” value [2, 6]?
Answer: 15

Question: What about the “MADRS Inner Tension improvement” value [2, 6] of the same compound?
Answer: 10

Question: What about the “MADRS Lassitude improvement” value [2, 6] of the same compound?
Answer: 16

Question: What about the “MADRS Lassitude score” value [2, 6] of the same compound?
Answer: 0

Question: What about the “MADRS Pessimistic Thoughts improvement” value [2, 6] of the same compound?
Answer: 9

Question: What about the “MADRS Pessimistic Thoughts score” value [2, 6] of the same compound?
Answer: 7

Question: What about the “MADRS Reduced Sleep improvement” value [2, 6] of the same compound?
Answer: 2

Question: What about the “MADRS Suicidal Thoughts improvement” value [2, 6] of the same compound?
Answer: 3

Question: And the “BPRS Anxiety improvement” value [2, 7]?
Answer: 19

Question: What about the “BPRS Blunted Affect improvement” value [2, 7] of the same compound?
Answer: 6

Question: What about the “BPRS Emotional Withdrawal improvement” value [2, 7] of the same compound?
Answer: 7

Question: What about the “BPRS Guilt Feelings improvement” value [2, 7] of the same compound?
Answer: 13

Question: What about the “BPRS Guilt Feelings score” value [2, 7] of the same compound?
Answer: 5

Question: What about the “BPRS Tension improvement” value [2, 7] of the same compound?
Answer: 8

Question: What about the “MADRS Concentration Difficulties improvement” value [2, 7] of the same compound?
Answer: 13

Question: And the “MADRS Inability to Feel improvement” value [2, 7]?
Answer: 15

Question: What about the “MADRS Inability to Feel score” value [2, 7] of the same compound?
Answer: 1

Question: What about the “MADRS Inner Tension improvement” value [2, 7] of the same compound?
Answer: 8

Question: And the “MADRS Lassitude improvement” value [2, 7]?
Answer: 13

Question: What about the “MADRS Lassitude score” value [2, 7] of the same compound?
Answer: 3

Question: What about the “MADRS Pessimistic Thoughts improvement” value [2, 7] of the same compound?
Answer: 8

Question: And the “MADRS Pessimistic Thoughts score” value [2, 7]?
Answer: 8

Question: What about the “MADRS Reduced Sleep improvement” value [2, 7] of the same compound?
Answer: 6

Question: And the “MADRS Suicidal Thoughts improvement” value [2, 7]?
Answer: 1

Question: And the “MADRS Reduced Sleep percentage improvement” value ([2]; IDR group n=8, day 1)?
Answer: 52.00%

Question: What about the “MADRS Reduced Sleep percentage improvement” value ([2]; IDR group n=8, day 7) of the same compound?
Answer: 64.00%

Question: And the “MADRS Concentration Difficulties improvement” value [2, 8]?
Answer: 19

Question: And the “MADRS Inability to Feel improvement” value [2, 8]?
Answer: 24

Question: And the “MADRS Inner Tension improvement” value [2, 8]?
Answer: 15

Question: And the “MADRS Lassitude improvement” value [2, 8]?
Answer: 17

Question: And the “MADRS Pessimistic Thoughts improvement” value [2, 8]?
Answer: 21

Question: What about the “MADRS Suicidal Thoughts improvement” value [2, 8] of the same compound?
Answer: 8

Question: And the “BPRS Anxiety improvement” value [2, 9]?
Answer: 18

Question: And the “BPRS Blunted Affect improvement” value [2, 9]?
Answer: 4

Question: What about the “BPRS Emotional Withdrawal improvement” value [2, 9] of the same compound?
Answer: 5

Question: What about the “BPRS Guilt Feelings improvement” value [2, 9] of the same compound?
Answer: 20

Question: And the “BPRS Tension improvement” value [2, 9]?
Answer: 5

Question: And the “BPRS Anxiety score” value [2, 10]?
Answer: 37

Question: And the “BPRS Blunted Affect score” value [2, 10]?
Answer: 15

Question: And the “BPRS Emotional Withdrawal score” value [2, 10]?
Answer: 13

Question: What about the “BPRS Guilt Feelings score” value [2, 10] of the same compound?
Answer: 34

Question: And the “BPRS Tension score” value [2, 10]?
Answer: 16

Question: And the “MADRS Concentration Difficulties score” value [2, 10]?
Answer: 30

Question: And the “MADRS Inability to Feel score” value [2, 10]?
Answer: 36

Question: What about the “MADRS Inner Tension score” value [2, 10] of the same compound?
Answer: 26

Question: What about the “MADRS Lassitude score” value [2, 10] of the same compound?
Answer: 27

Question: What about the “MADRS Pessimistic Thoughts score” value [2, 10] of the same compound?
Answer: 28

Question: And the “MADRS Reduced Sleep score” value [2, 10]?
Answer: 25

Question: What about the “MADRS Suicidal Thoughts score” value [2, 10] of the same compound?
Answer: 11

Question: What about the “BPRS Anxiety improvement” value [2, 11] of the same compound?
Answer: 21

Question: What about the “BPRS Blunted Affect improvement” value [2, 11] of the same compound?
Answer: 7

Question: And the “BPRS Emotional Withdrawal improvement” value [2, 11]?
Answer: 5

Question: What about the “BPRS Guilt Feelings improvement” value [2, 11] of the same compound?
Answer: 23

Question: What about the “BPRS Tension improvement” value [2, 11] of the same compound?
Answer: 5

Question: And the “MADRS Concentration Difficulties improvement” value [2, 11]?
Answer: 29

Question: What about the “MADRS Inability to Feel improvement” value [2, 11] of the same compound?
Answer: 34

Question: What about the “MADRS Inner Tension improvement” value [2, 11] of the same compound?
Answer: 20

Question: And the “MADRS Lassitude improvement” value [2, 11]?
Answer: 22

Question: What about the “MADRS Pessimistic Thoughts improvement” value [2, 11] of the same compound?
Answer: 24

Question: And the “MADRS Reduced Sleep improvement” value [2, 11]?
Answer: 13

Question: What about the “MADRS Suicidal Thoughts improvement” value [2, 11] of the same compound?
Answer: 10

Question: What about the “BPRS Anxiety improvement” value [2, 12] of the same compound?
Answer: 20

Question: And the “BPRS Blunted Affect improvement” value [2, 12]?
Answer: 7

Question: What about the “BPRS Emotional Withdrawal improvement” value [2, 12] of the same compound?
Answer: 5

Question: What about the “BPRS Guilt Feelings improvement” value [2, 12] of the same compound?
Answer: 24

Question: And the “BPRS Tension improvement” value [2, 12]?
Answer: 6

Question: What about the “MADRS Concentration Difficulties improvement” value [2, 12] of the same compound?
Answer: 21

Question: And the “MADRS Inability to Feel improvement” value [2, 12]?
Answer: 30

Question: What about the “MADRS Inner Tension improvement” value [2, 12] of the same compound?
Answer: 14

Question: And the “MADRS Lassitude improvement” value [2, 12]?
Answer: 24

Question: What about the “MADRS Pessimistic Thoughts improvement” value [2, 12] of the same compound?
Answer: 25

Question: And the “MADRS Reduced Sleep improvement” value [2, 12]?
Answer: 16

Question: And the “MADRS Suicidal Thoughts improvement” value [2, 12]?
Answer: 8

Question: And the “mean MADRS change from baseline” value ([2]; Part A, 12 mg group, day seven)?
Answer: −21.0

Question: What about the “mean MADRS change from baseline, percent” value ([2]; Part A, 12 mg group, day seven) of the same compound?
Answer: −65%

Question: What about the “patients with at least one ADR” value ([2]; Part A, 12 mg single dose) of the same compound?
Answer: 3 of 4

Question: And the “further patients with MADRS clinical response” value ([2]; Part A, 18 mg group n=4, day seven after dosing)?
Answer: 25%

Question: What about the “mean MADRS change from baseline, percent” value ([2]; Part A, 18 mg group, day seven) of the same compound?
Answer: −41%

Question: And the “patients with at least one ADR” value ([2]; Part A, 18 mg single dose)?
Answer: 3 of 4

Question: And the “patients with MADRS remission (total score less than or equal to 10)” value ([2]; Part B, IDR n=8, day seven)?
Answer: 87.5%
